One data set concerns guinea pig myocytes. The following applies: read-out: Kd for [^3 H]dofetilide binding in guinea pig myocytes, mean+/-SD, n=3, Chadwick et al; cited from earlier work.
Data set [1] deals with IKr in guinea pig myocytes. The following applies: cited from earlier work.
The target in data set [2] is T1, [^3 H]dofetilide binding site in HL-1 cells (IKr) (Mus musculus, UniProt O35219).
T1 sequence (O35219 1-1162): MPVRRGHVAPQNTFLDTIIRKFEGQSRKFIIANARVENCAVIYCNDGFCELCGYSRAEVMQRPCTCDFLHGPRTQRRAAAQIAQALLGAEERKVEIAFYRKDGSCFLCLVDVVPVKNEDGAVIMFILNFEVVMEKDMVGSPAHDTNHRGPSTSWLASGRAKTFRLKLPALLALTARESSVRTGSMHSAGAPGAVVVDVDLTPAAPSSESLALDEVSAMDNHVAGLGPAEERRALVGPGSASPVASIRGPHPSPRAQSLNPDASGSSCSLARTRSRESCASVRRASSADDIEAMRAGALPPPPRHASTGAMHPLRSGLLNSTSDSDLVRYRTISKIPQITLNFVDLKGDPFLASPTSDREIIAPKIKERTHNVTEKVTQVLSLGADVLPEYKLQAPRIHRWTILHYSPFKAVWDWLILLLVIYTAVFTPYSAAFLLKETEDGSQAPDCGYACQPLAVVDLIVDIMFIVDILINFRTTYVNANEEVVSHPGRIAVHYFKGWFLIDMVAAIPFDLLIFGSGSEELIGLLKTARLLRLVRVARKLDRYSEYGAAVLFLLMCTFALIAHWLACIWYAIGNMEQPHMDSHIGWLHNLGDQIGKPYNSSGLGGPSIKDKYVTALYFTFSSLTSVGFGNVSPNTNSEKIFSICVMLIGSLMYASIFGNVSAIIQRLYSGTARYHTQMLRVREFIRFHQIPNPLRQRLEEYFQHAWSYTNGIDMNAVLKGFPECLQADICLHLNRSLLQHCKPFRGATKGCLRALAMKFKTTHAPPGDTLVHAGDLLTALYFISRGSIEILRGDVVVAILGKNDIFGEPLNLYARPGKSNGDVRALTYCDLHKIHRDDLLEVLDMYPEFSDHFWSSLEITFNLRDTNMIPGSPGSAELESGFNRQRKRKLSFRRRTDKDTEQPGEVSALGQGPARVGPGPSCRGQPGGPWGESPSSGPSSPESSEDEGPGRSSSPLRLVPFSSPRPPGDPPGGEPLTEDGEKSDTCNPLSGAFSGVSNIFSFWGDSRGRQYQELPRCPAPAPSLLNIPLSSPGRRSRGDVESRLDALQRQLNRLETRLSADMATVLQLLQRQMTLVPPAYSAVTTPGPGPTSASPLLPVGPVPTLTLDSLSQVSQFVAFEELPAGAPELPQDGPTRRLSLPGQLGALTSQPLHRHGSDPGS
Nature of the data set: biochemical.
Procedure: HL-1 cells from passages 60 to 80 are dissociated from tissue culture flasks with a 5 min incubation with 0.1% trypsin (Clonetics, San Diego) followed by inactivation in a trypsin neutralizing solution (Clonetics, San Diego). The cells are suspended in a buffer containing (mM) KCl 40, KH2 PO4 20, MgCl2 5, KHCO3 0.5, glucose 10, potassium glutamate5 0, potassium asparate 20, EGTA 1 and HEPES (N-[2-Hydroxyethyl]piperazine-N'-[2-ethanesulfonic acid]) 10, adjusted to pH 7.4 with KOH and containing 0.1% bovine serum albumin (BSA). […] The cells are then filtered on GF/C Unifilter® 96 well filter plates (Packard, Meriden, Conn.) using a Packard Micromate496® harvester. Filter plates are presoaked with wash buffer (25 mM Tris-HCl, 130 mM NaCl, 5.5 mM KCl, 0.8 mM MgCl2 and 50 μM CaCl2 [pH 7.4]) containing 1.0% BSA and washed following harvesting at room temperature with four ×1 ml washes of the same buffer without BSA.

For data set [3], the system named is [^3 H]dofetilide binding site in guinea pig myocytes. The following applies: cited from earlier work.
For data set [4], the system named is IKr in rabbit ventricular myocytes. The following applies: Carmeliet 1992, read-out: IC50 reported for IKr in rabbit ventricular myocytes; cited from earlier work.
The test system of a further data set is HL-1 cells. Nature of the data set: Contractile activity (spontaneous beating) of HL-1 cells. The format is cell-based, mouse. The protocol:
CONTRACTILE ACTIVITY OF HL-1 CELLS
HL-1 cells are found to respond to several pharmacological agents in a manner expected for cardiomyocytes. Confluent cultures of HL-1 cells at passage 33 in growth medium (without norepinephrine or retinoic acid) display spontaneous contractile activity (beating).
In other experiments, spontaneously beating confluent HL-1 cells in growth medium are stopped by adding propranolol. First, norepinephrine bitartrate is added to a final concentration of 10^-5 M. Under these stimulated conditions, propranolol is subsequently added.
To determine if the effect of 10^-4 M propranolol is reversible, the culture medium containing propranolol is removed and growth medium (without norepinephrine or retinoic acid) is added to the cell cultures.

Structures can show the parent of a compound that is named as a salt. Where two headings read alike, the source gives them in different places.

Consider `[3H]c1cc(OCCN(C)CCc2ccc(NS(C)(=O)=O)cc2)ccc1NS(C)(=O)=O` [[^3 H]dofetilide], for which the Kd in the data set on guinea pig myocytes was 0.07 ± 0.006 µM.
As a reminder, the IC50 is the concentration that inhibits the measured activity by half. Consider `CN1CCN(CCCCN2C(=O)CN(/N=C/c3ccc(-c4ccc(Cl)cc4)o3)C2=O)CC1` [azimilide dihydrochloride], for which the IC50 in data set [1] (Fermini et al 1995, read-out: IC50 for blocking the rapidly activating component of the delayed rectifier IKr) was 0.4 µM. The compound also showed a Kd in data set [2] of 0.8 µM.
On to `CCCCCCC[N+](CC)(CC)CCCCc1ccc(Cl)cc1` [clofilium], for which, in data set [3] (cardiac myocytes), the Kd is 1.29 µM.
For the compound `CN(CCOc1ccc(NS(C)(=O)=O)cc1)CCc1ccc(NS(C)(=O)=O)cc1` [dofetilide], the Kd in data set [3] (read-out: Kd, competition for [^3 H]dofetilide binding, Cardiac Myocytes, primary guinea pig myocytes, Chadwick et al, SEM and N in own columns) was 0.1 µM. Also, the concentration for half-maximal inhibition (IC50) in data set [4] was 0.004 µM; in data set [1] (Jurkiewicz and Sanguinetti 1993, read-out: IC50 reported for IKr in guinea pig myocytes) it was 0.031 µM.
With `NC[C@H](O)c1ccc(O)c(O)c1` [norepinephrine bitartrate], the “contractile activity (beating) of HL-1 cells” value in the data set on HL-1 cells (final concentration 10^-5 M, passage 33, within two minutes, growth medium without norepinephrine or retinoic acid) is on record as “beating faster”.
Consider `CC(C)NCC(O)COc1cccc2ccccc12` (centres unmarked) [propranolol], for which, in the data set with HL-1 cells (final concentration 10^-4 M, after 10^-5 M norepinephrine bitartrate), the “time to arrest of all contractions” value was ≤ 10 min. In the data set with HL-1 cells (final concentration 10^-4 M, after stimulation with 10^-5 M norepinephrine bitartrate, within 10 minutes), the arrest of contractions result is listed as “arrests all contractions”. Moreover, in the data set with HL-1 cells (final concentrations of 10^-7 M, 10^-6 M, and 10^-5 M, after 10^-5 M norepinephrine bitartrate), the “effect on contractile activity” value was “no observable effect”. Also, in the data set with HL-1 cells (previously exposed to 10^-4 M (printed 10^31 4 M)), the “time to recovery of contractile activity after removal of drug” value is ≤ 1 h. The “reversibility: contractile activity after removal of drug” value in the data set with HL-1 cells (previously exposed to 10^-4 M (printed 10^31 4 M), within 1 hour after medium change) is listed as “contractile activity similiar to control HL-1 cell not exposed to propranolol”.
Turning to `COc1ccc(CCN(C)CCCC(C#N)(c2ccc(OC)c(OC)c2)C(C)C)cc1OC` (centres unmarked) [verapamil hydrochloride], in the data set with HL-1 cells (final concentrations of 10^-7 M, 10^-6 M and 10^-5 M, growth medium without norepinephrine or retinoic acid), the “contractile activity after addition of drug” value is “no observable contractile activity”.

Source of the values: patent publication US6316207A, “Mouse cardiac muscle cell line, HL-1” (priority 1999, dated 2001).
